Measurements taken from patent US12558337B2, “Formulations comprising melflufen” (ON[…], priority 2019, dated 2026).
Values joined by “and” are separate entries in the source; they are usually repeats but may differ in a detail not shown here. Equal entries are not always repeated.

Experiments:
Format in all cases: physicochemical
[1] = Stability study of formulation containing melflufen (OPD-5) and propylene glycol at 2-8° C., 25° C. and 40° C. (RP-HPLC, visual appearance); details: in propylene glycol; for change in melflufen concentration on storage: up to 168 days
Experimental: (§1) Vials (2R type 1 glass vials, Gerresheimer, #35601558) were washed with purified water (≤0.2 μmS/cm, <10 ppb Total Organic Carbon (TOC)). Afterwards, the vials were dried and heat-treated at 300° C. for 2 hours. Rubber stoppers were autoclaved at 121° C. and 2 bar for 15 min.
(§2) The formulation was prepared by dissolving melflufen (OPD-5) at a concentration of approximately 20 mg/mL (excluding the mass of the counterion) in propylene glycol (1,2-Propanediol, EMPROVE® exp Ph Eur, BP, USP, Merck Chemicals, #K49954578). 1 mL of the melflufen solution was added into each vial. The filled vials were then closed with a rubber stopper and crimp capped. The 1 mL samples were analysed at T0 (i.e. before storage) and after storage for approximately 4 weeks (T1), 8 weeks (T2), 12 weeks (T3), and 24 weeks (T4) at 2-8° C., 25° C. or 40° C.
RP-HPLC analysis was performed using an Agilent 1100 series Liquid Chromatography, and an)(Bridge® Shield (RP18, 3.5 μm, 4.6×150 mm) column. The method used a 0-80% B gradient over 20 min and a flow of 1.0 mL/min (mobile phase A: 10 mM ammonium acetate pH 5.0/acetonitrile 86/14 v/v; mobile phase B: acetonitrile), a column temperature of 20° C., a sampler temperature of 5° C., and UV detection at 262 nm. The pharmaceutical formulations were diluted to a melflufen concentration of 0.8 mg/mL using an ethanol/acetonitrile diluent (3:7 v/v) prior to RP-HPLC analysis.

[2] = Stability study of formulation containing melflufen (OPD-5) and PEG 300 at 2-8° C., 25° C. and 40° C. (RP-HPLC, visual appearance); details: in PEG 300; for change in melflufen concentration on storage: up to 164 days
Experimental: as §1
(§3) The formulation was prepared by dissolving melflufen (OPD-5) at a concentration of approximately 20 mg/mL (excluding the mass of the counterion) in polyethylene glycol (polyethylene glycol 300, Emprove exp., Ph. Eur, Merck Chemicals, #K47544702). 1 mL of the melflufen solution was added into each vial. The filled vials were then closed with a rubber stopper and crimp capped. The 1 mL samples were analysed at T0 (i.e. before storage) and after storage for approximately 4 weeks (T1a), 8 weeks (T2a), 12 weeks (T3a), and 24 weeks (T4a) at 2-8° C., 25° C. or 40° C.
RP-HPLC analysis was performed using an Agilent 1100 series Liquid Chromatography, and an XBridge® Shield (RP18, 3.5 μm, 4.6×150 mm) column. The method used a 0-80% B gradient over 20 min and a flow of 1.0 mL/min (mobile phase A: 10 mM ammonium acetate pH 5.0/acetonitrile 86/14 v/v; mobile phase B: acetonitrile), a column temperature of 20° C., a sampler temperature of 5° C., and UV detection at 262 nm. The pharmaceutical formulations were diluted to a melflufen concentration of 0.8 mg/mL using an ethanol/acetonitrile diluent (3:7 v/v) prior to RP-HPLC analysis.

[3] = Stability study of formulation containing melflufen (OPD-5) and propylene glycol at −20° C. and −70° C.; details: in propylene glycol
Experimental: 536.25 mg of melflufen (OPD-5) was weighed into a […] volumetric flask. The flask was then filled with propylene glycol (W294004-1 Kg-K, Lot no: MKCD8681, Sigma-Aldrich). The resulting mixture was vortexed for 3 minutes. The mixture was then stirred for 15 minutes at 28° C. with occasional vortexing to furnish a clear solution having a melflufen concentration of approximately 20 mg/mL (excluding the mass of the counterion). The solution was aliquoted into 1 mL vials and stored at −70° C. or at −20° C.
The concentration and purity (% relative peak area) of melflufen in the propylene glycol formulation was analysed at time 0 (T0b) and then every 1 month by RP-HPLC. For each time point, two replicated were analysed (i.e. two separate vials of the formulation). At each time point the vials were visually checked for any color change or precipitation.
RP-HPLC analysis was performed using an Agilent 1100 series Liquid Chromatography, and an XBridge® C18 (2.1×100 mm, 3.5 μm) column. The method used a 5-95% B gradient over 6 min and a flow of 0.8 mL/min (mobile phase A: 0.1% formic acid in water; mobile phase B: 0.1% formic acid in acetonitrile), a column temperature of 55° C., a sampler temperature of 25° C., and UV detection at 262 nm. Samples were then diluted to 200 μg/mL concentration in DMA before injection into RP-HPLC. An injection volume of 5 μL was used.

[4] = Solubility of melflufen (OPD-5) in propylene glycol; details: approximately 20 mg/mL prepared
Experimental: as §2

[5] = Solubility of melflufen (OPD-5) in PEG 300; details: approximately 20 mg/mL prepared
Experimental: as §3

[6] = Stability of isolated melflufen freebase oil; details: colorless oil; room temperature; several days
Experimental: The hydrochloride salt of melflufen may be prepared as disclosed in WO 01/96367, which is incorporated herein by reference. Ethanesulfonate, maleate and p-toluenesulfonate salts of melflufen were prepared by treating the melflufen freebase with 1 equivalent of the respective acid in dichloromethane or ethyl acetate. If required, heptane was added to initiate salt precipitation. All salts were isolated as white solids in a 1:1 ratio of melflufen and counterion, and dried under high vacuum. Melflufen freebase was prepared from melflufen hydrochloride using NaHCO3 and dichloromethane (DCM). Melflufen hydrochloride was suspended in 100 mL of dichloromethane before an ice-cold solution of NaHCO3(aq) was added. The mixture was shaken for 30 seconds and the phases were allowed to settle. The organic phase was collected and dried over MgSO4 before the solvent was removed in vacuo at 0° C. Melflufen freebase was isolated as a colorless oil. No degradation of melflufen was observed by HPLC analysis and the oil was stable at room temperature for several days.

[7] = 2-8° C., T1 (31 days), hydrochloride
[8] = 2-8° C., T4 (168 days), hydrochloride
[9] = 25° C., T1 (31 days), hydrochloride
[10] = 25° C., T3 (98 days), hydrochloride
[11] = 25° C., T4 (168 days), hydrochloride
[12] = 40° C. (accelerated storage condition), over time
[13] = 2-8° C., T1a (26 days), hydrochloride
[14] = 2-8° C., T2a (54 days), hydrochloride
[15] = 2-8° C., T3a (94 days), hydrochloride
[16] = 25° C., T1a (26 days), hydrochloride
[17] = 25° C., T2a (54 days), hydrochloride
[18] = 25° C., T3a (94 days), hydrochloride
[19] = 25° C., T4a (164 days), hydrochloride

Cl.[2H]C([2H])([2H])C([2H])([2H])OC(=O)[C@H](Cc1ccc(F)cc1)NC(=O)[C@@H](N)Cc1ccc(N(CCCl)CCCl)cc1 [OPD-5, (^2H5)ethyl (2S)-2-[(2S)-2-amino-3-{4-[bis(2-chloroethyl)amino]phenyl}propanamido]-3-(4-fluorophenyl)propanoate hydrochloride]
Concentration of melfufen (ODP-5) [1, 7]: 20100 µg/mL and 20200 µg/mL | Purity of melfufen (ODP-5) [1, 7]: 99.1 % relative peak area and 99.3 % relative peak area | Purity of melfufen (ODP-5) ([1]; 2-8° C., T2 (59 days)): 99.2 % relative peak area | Concentration of melfufen (ODP-5) ([1]; 2-8° C., T2 (59 days), hydrochloride): 19800 µg/mL and 20300 µg/mL | Concentration of melfufen (ODP-5) ([1]; 2-8° C., T3 (98 days)): 20500 µg/mL | Purity of melfufen (ODP-5) ([1]; 2-8° C., T3 (98 days), hydrochloride): 99.0 % relative peak area and 98.5 % relative peak area | Concentration of melfufen (ODP-5) [1, 8]: 18400 µg/mL and 18300 µg/mL | Purity of melfufen (ODP-5) [1, 8]: 95.4 % relative peak area and 95.8 % relative peak area | visual appearance ([1]; 2-8° C., at each time point (T1, T2, T3 and T4)): no visible colouration | change in melflufen concentration on storage ([1]; 2-8° C.): no significant change | Concentration of melfufen (ODP-5) [1, 9]: 15700 µg/mL and 15800 µg/mL | Purity of melfufen (ODP-5) [1, 9]: 89.0 % relative peak area and 89.3 % relative peak area | Purity of melfufen (ODP-5) ([1]; 25° C., T2 (59 days)): 81.3 % relative peak area | Concentration of melfufen (ODP-5) ([1]; 25° C., T2 (59 days), hydrochloride): 14100 µg/mL and 12200 µg/mL | Concentration of melfufen (ODP-5) [1, 10]: 8800 µg/mL and 8400 µg/mL | Purity of melfufen (ODP-5) [1, 10]: 68.1 % relative peak area and 66.6 % relative peak area | Concentration of melfufen (ODP-5) [1, 11]: 5100 µg/mL and 4900 µg/mL | Purity of melfufen (ODP-5) [1, 11]: 49.9 % relative peak area and 48.7 % relative peak area | visual appearance ([1]; 25° C., over time (T1 to T4)): yellow to brown colouration that increased in intensity over time | change in melflufen concentration on storage ([1]; 25° C.): decrease over time | visual appearance [1, 12]: yellow to brown colouration that increased in intensity over time | melflufen purity retained (relative to the melflufen purity before storage of the formulation) ([1]; about 5° C. (2 to 8° C.), over 50 days): greater than 95% | visual appearance ([2]; 2-8° C., 26 days (T1a)): slight yellow colouration | visual appearance ([2]; 2-8° C., 54 days (T2a), 94 days (T3a) and 164 days (T4a)): small increase in the intensity of the yellow colouration | Concentration of melfufen (ODP-5) [2, 13]: 19900 µg/mL and 19800 µg/mL | Purity of melfufen (ODP-5) [2, 13]: 96.7 % relative peak area and 96.9 % relative peak area | Concentration of melfufen (ODP-5) [2, 14]: 19900 µg/mL and 19300 µg/mL | Purity of melfufen (ODP-5) [2, 14]: 95.2 % relative peak area and 95.5 % relative peak area | Concentration of melfufen (ODP-5) [2, 15]: 18700 µg/mL and 18900 µg/mL | Purity of melfufen (ODP-5) [2, 15]: 92.7 % relative peak area and 92.6 % relative peak area | Concentration of melfufen (ODP-5) ([2]; 2-8° C., T4a (164 days)): 18700 µg/mL | Purity of melfufen (ODP-5) ([2]; 2-8° C., T4a (164 days), hydrochloride): 91.4 % relative peak area and 91.3 % relative peak area | change in melflufen concentration on storage ([2]; 2-8° C.): no significant change | Concentration of melfufen (ODP-5) [2, 16]: 18100 µg/mL and 17900 µg/mL | Purity of melfufen (ODP-5) [2, 16]: 89.3 % relative peak area and 89.6 % relative peak area | Concentration of melfufen (ODP-5) [2, 17]: 14400 µg/mL and 15300 µg/mL | Purity of melfufen (ODP-5) [2, 17]: 83.8 % relative peak area and 85.1 % relative peak area | Concentration of melfufen (ODP-5) [2, 18]: 11200 µg/mL and 11300 µg/mL | Purity of melfufen (ODP-5) [2, 18]: 74.2 % relative peak area and 74.7 % relative peak area | Concentration of melfufen (ODP-5) [2, 19]: 9800 µg/mL and 9500 µg/mL | Purity of melfufen (ODP-5) [2, 19]: 70 % relative peak area and 68.1 % relative peak area | visual appearance ([2]; 25° C., over time (T1a to T4a)): yellow to brown colouration that increased in intensity over time | change in melflufen concentration on storage ([2]; 25° C.): decrease over time | visual appearance [2, 12]: yellow to brown colouration that increased in intensity over time | time for which the formulation was stable ([3]; −20° C.): at least 6 months | change in melflufen (OPD-5) concentration ([3]; −20° C., 6 month test period): no notable change | melflufen purity retained (relative to the melflufen purity before storage of the formulation) ([3]; −20° C., 6 months): greater than 99.5% | colour change or precipitation (visual check) ([3]; −70° C. and −20° C., 6-8 month test period): No colour change or precipitation | change in melflufen (OPD-5) concentration ([3]; −70° C., 8 month test period): no notable change | melflufen purity retained (relative to the melflufen purity before storage of the formulation) ([3]; −70° C., 8 months): greater than 99.5% | solubility in propylene glycol [4]: readily soluble | solubility in PEG 300 [5]: readily soluble

CCOC(=O)[C@H](Cc1ccc(F)cc1)NC(=O)[C@@H](N)Cc1ccc(N(CCCl)CCCl)cc1 [Melflufen freebase, L-Melphalanyl-4-fluoro-L-phenylalanine ethyl ester]
stability of the oil [6]: stable
